Laboratory results published in ChEMBL document CHEMBL1649380, “Prediction of drug intestinal absorption by new linear and non-linear QSPR” (Eur J Med Chem, 2011).

assay: Drug absorption in human assessed as human intestinal absorption rate; format: ADME, tissue-based, Intestine

Compound | log10(%HIA +10)
C[C@@H](O)[C@H]1C(=O)N2C(C(=O)O)=C(S[C@@H]3CN[C@H](C(=O)N(C)C)C3)[C@H](C)[C@H]12 [MEROPENEM] | 1
CC1(C)S[C@@H]2[C@H](NC(=O)[C@H](NC(=O)N3CCN(S(C)(=O)=O)C3=O)c3ccccc3)C(=O)N2[C@H]1C(=O)O [MEZLOCILLIN] | 1
N=C(N)c1ccc(OCCCCCOc2ccc(C(=N)N)cc2)cc1 [PENTAMIDINE] | 1
Cc1c(OCC(F)(F)F)ccnc1C[S+]([O-])c1nc2ccccc2[nH]1 (centres undefined) [LANSOPRAZOLE] | 1.978
CCOC(=O)[C@H](CCc1ccccc1)N[C@@H](C)C(=O)N1Cc2cc(OC)c(OC)cc2C[C@H]1C(=O)O [MOEXIPRIL] | 1.176
C[C@H]1[C@H](NC(=O)/C(=N\OC(C)(C)C(=O)O)c2csc(N)n2)C(=O)N1S(=O)(=O)O [AZTREONAM] | 1.041
Cn1c(=O)c2c(ncn2CCCNCC(O)c2cc(O)cc(O)c2)n(C)c1=O (centres undefined) [REPROTEROL] | 1.845
OC[C@H]1O[C@@H](O[C@@H]2[C@@H](CO)O[C@](O)(CO)[C@H]2O)[C@H](O)[C@@H](O)[C@H]1O [LACTULOSE] | 1.025
C[C@H]1O[C@H](O[C@H]2[C@H](O)[C@@H](O)[C@@H](O[C@H]3[C@H](O)[C@@H](O)C(O)O[C@@H]3CO)O[C@@H]2CO)[C@H](O)[C@@H](O)[C@@H]1N[C@H]1C=C(CO)[C@@H](O)[C@H](O)[C@H]1O (some centres undefined) [ACARBOSE] | 1.079
CN(C)C(=N)N=C(N)N [METFORMIN] | 1.799
Cc1c(N(C)C)c(=O)n(-c2ccccc2)n1C [AMINOPYRINE] | 2.041
CC(C(=O)O)c1cccc(C(=O)c2ccccc2)c1 (centres undefined) [KETOPROFEN] | 2.009
NC(=O)N1C(=O)/C(=C(\O)c2cccs2)c2cc(Cl)ccc21 [TENIDAP] | 1.996
CCOC(=O)C(C)(C)Oc1ccc(Cl)cc1 [CLOFIBRATE] | 1.987
O=C1CN2Cc3c(ccc(Cl)c3Cl)N=C2N1 [ANAGRELIDE] | 1.903
COc1ccc2cc([C@H](C)C(=O)O)ccc2c1 [NAPROXEN] | 2.037
C=CCNc1nc(NCC=C)nc(N2CCN(C(c3ccc(F)cc3)c3ccc(F)cc3)CC2)n1 [ALMITRINE] | 2
NCC[C@H](O)C(=O)N[C@@H]1C[C@H](N)[C@@H](O[C@H]2O[C@H](CN)CC[C@H]2N)[C@H](O)[C@H]1O[C@H]1O[C@H](CO)[C@@H](O)[C@H](N)[C@H]1O [ARBEKACIN] | 1
N#C[C@H](O[C@@H]1O[C@H](CO[C@@H]2O[C@H](CO)[C@@H](O)[C@H](O)[C@H]2O)[C@@H](O)[C@H](O)[C@H]1O)c1ccccc1 [AMYGDALIN] | 1.176
CCCc1c2oc(C(=O)O)cc(=O)c2cc2c(=O)cc(C(=O)O)n(CC)c12 [NEDOCROMIL] | 1.114
C[C@@H]1O[C@@H](O[C@H]2C[C@@H](O)[C@]3(CO)[C@H]4[C@H](O)C[C@]5(C)[C@@H](C6=CC(=O)OC6)CC[C@]5(O)[C@@H]4CC[C@]3(O)C2)[C@H](O)[C@H](O)[C@H]1O [OUABAIN] | 1.057
NS(=O)(=O)c1cc(C(=O)O)c(NCc2ccco2)cc1Cl [FUROSEMIDE] | 1.851
CC(=O)Nc1ccc(O)cc1 [ACETAMINOPHEN] | 1.978
COc1ccc2c3c1O[C@H]1[C@@H](O)C=C[C@H]4[C@@H](C2)N(C)CC[C@@]341 [CODEINE] | 2.021
CC(=O)OCC(CCn1cnc2cnc(N)nc21)COC(C)=O [FAMCICLOVIR] | 1.903

Compound | log10(%HIA +10)
CCc1oc2ccccc2c1C(=O)c1cc(Br)c(O)c(Br)c1 [BENZBROMARONE] | 1.919
COc1ccccc1N1CCN(CCCNc2cc(=O)n(C)c(=O)n2C)CC1 | 1.945
[H]/N=C(/N)N[C@H]1[C@H](O)[C@@H](O)[C@H](O[C@@H]2O[C@@H](C)[C@](O)(C=O)[C@H]2O[C@@H]2O[C@@H](CO)[C@H](O)[C@@H](O)[C@@H]2NC)[C@@H](N/C(N)=N\[H])[C@@H]1O [STREPTOMYCIN] | 1.041
N=c1nc2n(cc1F)[C@@H]1O[C@H](CO)[C@@H](O)[C@@H]1O2 [FLUROCITABINE] | 1.623
CN(C)[C@@H]1C(O)=C(C(N)=O)C(=O)[C@@]2(O)C(O)=C3C(=O)c4c(O)cccc4[C@@](C)(O)[C@H]3[C@H](O)[C@@H]12 [OXYTETRACYCLINE] | 1.833
O=C(O)c1ccccc1C(=O)Nc1ccc(S(=O)(=O)Nc2nccs2)cc1 [PHTHALYLSULFATHIAZOLE] | 1.176
COc1ccc2c(c1)c(CC(=O)O)c(C)n2C(=O)c1ccc(Cl)cc1 [INDOMETHACIN] | 2.041
CC(C)NCC(O)COc1ccc(CCOCC2CC2)cc1 (centres undefined) [BETAXOLOL] | 2
CCOC(=O)[C@H](CCc1ccccc1)N[C@H]1CCc2ccccc2N(CC(=O)O)C1=O [BENAZEPRIL] | 1.672
CC(=O)N(CC(O)CO)c1c(I)c(C(=O)NCC(O)CO)c(I)c(C(=O)NCC(O)CO)c1I (centres undefined) [IOHEXOL] | 1.176
C[C@@H](O)[C@H]1C(=O)N2C(C(=O)O)=C(SCCN=CN)C[C@H]12 [IMIPENEM ANHYDROUS] | 1.176
NS(=O)(=O)c1cc2c(cc1Cl)NCNS2(=O)=O [HYDROCHLOROTHIAZIDE] | 1.875
CCCCC(=O)N(Cc1ccc(-c2ccccc2-c2nnn[nH]2)cc1)[C@H](C(=O)O)C(C)C | 1.813
CCOC(=O)Nc1ccc2c(c1)N(C(=O)CCN1CCOCC1)c1ccccc1S2 [MORICIZINE] | 1.991
O=CN(O)CCCP(=O)(O)O [FOSMIDOMYCIN] | 1.602
COc1nc(C)nc(Cl)c1N=C1NCCN1 [MOXONIDINE] | 1.991
NCCCC[C@H](N[C@@H](CCc1ccccc1)C(=O)O)C(=O)N1CCC[C@H]1C(=O)O [LISINOPRIL ANHYDROUS] | 1.544
CC[C@H](C)C(=O)O[C@H]1C[C@H](O)C=C2C=C[C@H](C)[C@H](CC[C@@H](O)C[C@@H](O)CC(=O)O)[C@H]21 [PRAVASTATIN] | 1.643
CN1[C@@H]2CC[C@H]1C[C@@H](OC(=O)C(CO)c1ccccc1)C2 (some centres undefined) [ATROPINE] | 2.033
O=C1c2c(O)ccc(O)c2C(=O)c2c(NCCNCCO)ccc(NCCNCCO)c21 [MITOXANTRONE] | 1.176
O=P(O)(O)C(O)(Cc1cccnc1)P(=O)(O)O [RISEDRONIC ACID] | 1.041
COc1cccc(C(=O)CCN[C@@H](C)[C@H](O)c2ccccc2)c1 [OXYFEDRINE] | 1.978
O=C(O)c1cc(/N=N/c2ccc(O)c(C(=O)O)c2)ccc1O [OLSALAZINE] | 1.09
CC(C)(C)NC[C@H](O)COc1nsnc1N1CCOCC1 [TIMOLOL] | 2.021
CN(N=O)C(=O)N[C@@H](C=O)[C@@H](O)[C@H](O)[C@H](O)CO [STREPTOZOCIN] | 1

Compound | log10(%HIA +10)
CC(C)NCC(O)COc1ccc(CC(N)=O)cc1 (centres undefined) [ATENOLOL] | 1.785
CCOC(=O)[C@H](CCc1ccccc1)N[C@@H](C)C(=O)N1CCC[C@H]1C(=O)O.O=C(O)/C=C\C(=O)O [ENALAPRIL MALEATE] | 1.881
CC[C@@H](CO)NCCN[C@@H](CC)CO [ETHAMBUTOL] | 1.954
N[C@@H]1CON=C1O [CYCLOSERINE] | 1.919
Cc1cccc(C)c1NC(=O)NCCCNC(C)C | 1.909
OCCN(CCO)c1nc(N2CCCCC2)c2nc(N(CCO)CCO)nc(N3CCCCC3)c2n1 [DIPYRIDAMOLE] | 1.833
N=C(N)NC(=O)c1nc(Cl)c(N)nc1N [AMILORIDE] | 1.778
CC[C@H]1OC(=O)[C@H](C)[C@@H](O[C@H]2C[C@@](C)(OC)[C@@H](O)[C@H](C)O2)[C@H](C)[C@@H](O[C@@H]2O[C@H](C)C[C@H](N(C)C)[C@H]2O)[C@](C)(O)C[C@@H](C)CN(C)[C@H](C)[C@@H](O)[C@]1(C)O [AZITHROMYCIN] | 1.663
NC[C@H]1O[C@H](O[C@H]2[C@H](O)[C@@H](O[C@H]3O[C@H](CO)[C@@H](O)[C@H](N)[C@H]3O)[C@H](N)C[C@@H]2N)[C@H](O)[C@@H](O)[C@@H]1O [KANAMYCIN] | 1.041
OC(Cn1cncn1)(Cn1cncn1)c1ccc(F)cc1F [FLUCONAZOLE] | 2.027
CC(C)C[C@H]1C(=O)N2CCC[C@H]2[C@]2(O)O[C@](NC(=O)[C@@H]3C=C4c5cccc6[nH]c(Br)c(c56)C[C@H]4N(C)C3)(C(C)C)C(=O)N12 [BROMOCRIPTINE] | 1.58
COc1cccc2c1C(=O)c1c(O)c3c(c(O)c1C2=O)C[C@@](O)(C(=O)CO)C[C@@H]3O[C@H]1C[C@H](N)[C@H](O)[C@H](C)O1 [DOXORUBICIN] | 1.176
CC1(C)S[C@@H]2[C@H](NC(=O)[C@H](NC(=O)N3CCNC3=O)c3ccccc3)C(=O)N2[C@H]1C(=O)O [AZLOCILLIN] | 1
OCCOCCN1CCN(C2=Nc3ccccc3Sc3ccccc32)CC1 [QUETIAPINE] | 1.919
Cc1onc(-c2c(F)cccc2Cl)c1C(=O)N[C@@H]1C(=O)N2[C@@H]1SC(C)(C)[C@@H]2C(=O)O [FLOXACILLIN] | 1.699
CN(C)CCCOc1nn(Cc2ccccc2)c2ccccc12 [BENZYDAMINE] | 1.987
CCOC(=O)[C@H](CCc1ccccc1)N[C@@H](C)C(=O)N1[C@H](C(=O)O)C[C@@H]2CCC[C@@H]21 | 1.845
O=c1[nH]c(=O)n([C@H]2C[C@H](O)[C@@H](CO)O2)cc1/C=C/Br [BRIVUDINE] | 1.58
COc1ccc2c(C(=S)N(C)CC(=O)O)cccc2c1C(F)(F)F [TOLRESTAT] | 1.881
CC(=O)Oc1cc(C(C)C)c(OCCN(C)C)cc1C [MOXISYLYTE] | 1.903
NCCCC(N)(C(=O)O)C(F)F (centres undefined) [EFLORNITHINE] | 1.813
O=C(COCCOCCOCC(=O)Nc1c(I)cc(I)c(C(=O)O)c1I)Nc1c(I)cc(I)c(C(=O)O)c1I [IOTROXIC ACID] | 1.176
CC1(C)S[C@@H]2[C@H](NC(=O)[C@H](N)c3ccc(O)cc3)C(=O)N2[C@H]1C(=O)O [AMOXICILLIN] | 2.016
CCN(CC)C(=S)SSC(=S)N(CC)CC | 2.029
